Entries after “also recorded” stand apart in the source; their conditions may differ.
What was measured:
physchem = assay: physchem
Method: PAHs (approximately 1 g l^−1) were added to a 10 ml solution of BSM plus surfactant in a 30 ml glass reaction vial, which was sealed with an aluminium cap fitted with a septum. Surfactant concentrations corresponded to levels above, below, and at the CMC, and replicates were set up to allow sampling in duplicate at different time intervals up to 72 h. Incubation was performed at 30° C. and 175 rpm. The entire vial contents was collected by syringe and expressed through a preconditioned membrane filter (0.22 μm, Sartorius AG, Germany) to remove solid-phase crystalline PAH while allowing solubilized PAH in the aqueous phase and micellar pseudophase to pass into sterile vials. The filter was preconditioned by purging the filter with a few mls of sample solution to allow sorption saturation of the internal surfaces of the syringe, filter and needle. The filtrates were extracted with dichloromethane (DCM), and the concentration of solubilized PAH was determined by GC-FID as described below.
The effectiveness of a particular surfactant in solubilizing a given PAH can be assessed by determining the molar solubilization ratio (MSR) and micelle/water partition coefficient (Km). In our study, the concentrations of added PAHs were well in excess of aqueous saturation concentrations; therefore the MSR value of each compound can be obtained from the slope of the curve generated from a plot of PAH concentration versus surfactant concentration for surfactant concentrations above CMC (Edwards et al, 1991).
Km values can be determined from the measured MSR values according to the following equation (Edwards et al, 1991): [formula]
^SPAH, CMC is the apparent solubility of the PAH (mol l^−1) at surfactant CMC. VW is the molar volume of water at 30° C. ie. 0.018015 l mol^−1(Rogers and Mayhew, 1981).

[1] = Surfactant critical micelle concentration, duNouy ring tensitometer; format: physicochemical; conditions: for CMC in BSM compared with deionized (distilled) water: 30° C.; for CMC: in BSM
Method: Experiments to evaluate surfactant CMC values were conducted at 30° C. using a duNouy ring tensitometer (Cambridge Instrument Company Limited, London, England). All glassware was cleaned with chromic acid solution, and the tensitometer ring was cleaned with acetone and heated to redness in a gas flame. Various concentrations of surfactant solutions were prepared in deionized water and BSM. Surfactant solutions were allowed to equilibrate for approximately 2 h before measurements were made. Measurements were an average of five readings (SD<0.3%). CMC value was taken from the plot of surface tension versus log surfactant concentration, as described by Kile and Chiou (1989).

strain VUN 10,010 = assay: Agar (well) diffusion toxicity test of surfactants; format: cell-based, Stenotrophomonas maltophilia; conditions: concentrations of 5 and 10 g l^−1
Method: The agar diffusion method was used to determine the effects of surfactants on growth by observing zones of inhibition on peptone-glucose agar (Cserhali et al, 1991). The medium contained per litre: 5 g peptone, 5 g glucose, 0.5 g NaCl, 3 g beef extract, 20 g agar; the pH was adjusted to 7.0 and sterilized by autoclaving for 15 min at 121° C. Bacterial cultures were mixed with the molten medium (25 ml) to obtain an inoculum size of approximately 10^8 cells ml^−1, and this was poured into a Petri dish. Once the cell-medium mixture had solidified, 7 mm diameter holes were made, and 150 μl of aqueous surfactant solutions was added (0.1-10.0 g l^−1). Growth inhibition zones were observed after 48-72 h at 30° C.

[2] = test system: S. maltophilia VUN 10,010; assay: Pyrene degradation and growth of VUN 10,010 in the presence of surfactants; format: cell-based, Stenotrophomonas maltophilia; conditions: for effect on growth of VUN 10,010 on pyrene (protein analysis, MPN): surfactant 5-10 g l^−1; for effect on pyrene degradation by VUN 10,010: surfactant 5-10 g l^−1 (up to 10 g l^−1)
Method: Each surfactant was added to the medium to achieve the following concentrations: 0.5 g l^−1 (▴), 5.0 g l^−1 (●) and 10.0 g l^−1 (▪). The control cultures ( ) contained no added surfactant. The incubations were performed in BSM at 30° C., using low initial cell populations.
Growth was monitored by measuring protein concentration and viable cell numbers at regular intervals up to 10 days. Viable cell numbers were determined by most probable number (MPN) estimates (Collin et al, 1989).
Three types of controls were used: cultures containing no surfactant, uninoculated broth, and killed cell cultures (0.2% HgCl2). All cultures were incubated at 30° C./175 rpm. Bacterial growth was determined by MPN estimates.

[3] = data from the manufacturers; cited from earlier work
[4] = Ghosh et al (1995); medium and temperature not specified; cited from earlier work

Row | Substance | MSR (molar solubilization ratio), PYR (physchem) | log Km (micelle-phase/aqueous-phase partition coefficient), PYR (physchem) | CMC in BSM compared with deionized (distilled) water [1] | CMC [1] [mM] | effect on microbial growth (strain VUN 10,010) | effect on growth of VUN 10,010 on pyrene (protein analysis, MPN) [2] | effect on pyrene degradation by VUN 10,010 [2] | HLB (hydrophile-lipophile balance number) [3] | MSR (molar solubilization ratio), BAP (physchem) | MSR (molar solubilization ratio), FA (physchem) | log Km (micelle-phase/aqueous-phase partition coefficient), BAP (physchem) | log Km (micelle-phase/aqueous-phase partition coefficient), FA (physchem) | MSR for benzo[a]pyrene [4] | reduction of time required for VUN 10,010 to degrade 250 mg l^−1 of pyrene ([2]; surfactant 5-10 g l^−1, presolubilized pyrene) [%]
1 | Igepal CA-630 | 0.0326 | 5.39 | higher CMC values in BSM | 0.1078 | some inhibition | inhibited | inhibited pyrene degradation; also recorded: inhibitory to pyrene degradation | 13.0 | – | – | – | – | – | –
2 | Triton X-100 | 0.0352 | 5.84 | higher CMC values in distilled water | 0.2320 | – | – | enhanced | 13.5 | 0.0113 | 0.0508 | 7.49 | 5.64 | 1.5×10^−2 | –
3 | Tyloxapol | 0.0820 | 6.60 | higher CMC values in distilled water | 0.0167 | – | significantly improved | enhanced | 12.9 | – | – | – | – | – | 50

From patent publication US20040023362A1, “Degradation of polycyclic aromatic hydrocarbons by microorganisms” (priority 2000, published 2004)
